Laboratory results published in US4517005A, “Aminophenol urease inhibitors and urease inhibited urea based fertilizer compositions” (Allied Corporation, priority 1983, dated 1985).
Counter-ions that a name gives are not always drawn.

Key:
[1] = test system: urease in New York soil (Cazenovia silt loam, pH 7.0); assay: Urease Inhibition Efficacy Test in New York soil (Cazenovia silt loam); assay type: biochemical; settings: 40 micrograms test compound per gram soil; 42.8 mg urea per 20 g air-dry soil; incubated at 25° C. for three days; remaining urea; run in triplicate
Procedure: (§1) Efficacy tests were conducted to evaluate the efficacy of certain representative aminophenol compounds as urease inhibitors. The inhibition tests were run in New York soil (Cazenovia silt loam, pH 7.0) or in Wisconsin soil (Plano silt loam, pH 5.4)
(§2) Evaluations (run in triplicate) consisted of applying 800 micrograms of the test compound in 5 ml of water and 42.8 mg of urea in 1 mL of water to 20 g of air-dry soil in a glass bottle. The bottle was capped with perforated aluminum foil and incubated at 25° C.C for three days prior to extraction with 100 mL of a 2M KCl solution containing 0.5 mg of phenylmercuric acetate. The extracts were then analyzed for remaining urea using an autoanalyzer. Percent inhibition was calculated as % Inhibition=[1-(A-B/A-C)]×100 where A is urea recovered from unincubated sample (urea added to soil and immediately extracted); B is urea recovered from inhibited sample; and C is urea recovered from the control (uninhibited sample).

[2] = test system: urease in Wisconsin soil (Plano silt loam, pH 5.4); assay: Urease Inhibition Efficacy Test in Wisconsin soil (Plano silt loam); assay type: biochemical; settings: 40 micrograms test compound per gram soil; 42.8 mg urea per 20 g air-dry soil; incubated at 25° C. for three days; remaining urea; run in triplicate
Procedure: as §1, §2

Row | Molecule | % Inhibition 40 micrograms per gram soil Cazenovia pH 7.0 [1] [%] | % Inhibition 40 micrograms per gram soil Wisconsin pH 5.4 [2] [%]
1 | 2,6-Dichloroiminophenol, sodium salt | 69 | 
2 | Nc1ccccc1O [2-aminophenol] | 8 | 
3 | O=C(Nc1ccc(O)cc1)c1ccccc1 [4'-Hydroxybenzanilide] | 50 | 14
4 | CN(C)c1ccc(O)cc1 [4-(N,N--dimethylamino)-phenol hydrochloride] | 77 | 49
5 | CNc1ccc(O)cc1 [4-(N--methylamino)phenol sulfate] | 82 | 55
6 | Oc1ccc(Nc2ccccc2)cc1 [4-(N--phenyl)aminophenol] | 69 | 53
7 | Nc1ccc(O)cc1 [4-aminophenol] | 46 | 
8 | O=C(O)CNc1ccc(O)cc1 [N--(4-Hydroxyphenyl)glycine] | 82 | 61
